Measured values from ChEMBL document CHEMBL1201861, “Genomics of Drug Sensitity in Cancer screening data, Wellcome Trust Sanger Institute”.

Legend:
Test in all cases: cells
D-392MG = type: functional, cell-based, Homo sapiens; conditions: Homo sapiens, D-392MG
D-502MG = type: functional, cell-based, Homo sapiens; conditions: Homo sapiens, D-502MG
Description: SANGER: Inhibition of human D-502MG cell growth in a cell viability assay.

EW-24 = type: functional, cell-based; conditions: Homo sapiens;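 further: human EW-24 cancer cell line, growth inhibition read out via a cell viability assay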
Description: SANGER: Inhibition of human EW-24 cell growth in a cell viability assay.

GI-ME-N = type: functional, cell-based, Homo sapiens; conditions: Homo sapiens, GI-ME-N;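 further: growth inhibition of human GI-ME-N cells, read out with a cell viability assay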
Description: SANGER: Inhibition of human GI-ME-N cell growth in a cell viability assay.

GT3TKB = type: functional, cell-based, Homo sapiens; conditions: Homo sapiens, GT3TKB;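 further: growth inhibition of the cell line, read out with a cell viability assay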
Description: SANGER: Inhibition of human GT3TKB cell growth in a cell viability assay.

JVM-3 = type: functional, cell-based; conditions: Homo sapiens;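 further: growth inhibition of human JVM-3 cells, read out with a cell viability assay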
Description: SANGER: Inhibition of human JVM-3 cell growth in a cell viability assay.

KP-N-YN = type: functional, cell-based; conditions: Homo sapiens;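 further: growth inhibition of KP-N-YN cells, read out with a cell viability assay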
Description: SANGER: Inhibition of human KP-N-YN cell growth in a cell viability assay.

L-363 = type: functional, cell-based; conditions: Homo sapiens
Description: SANGER: Inhibition of human L-363 cell growth in a cell viability assay.

LAN-6 = type: functional, cell-based, Homo sapiens; conditions: Homo sapiens, LAN-6;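 further: growth inhibition of LAN-6 cells, determined with a cell viability assay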
Description: SANGER: Inhibition of human LAN-6 cell growth in a cell viability assay.

LU-134-A = type: functional, cell-based; conditions: Homo sapiens
Description: SANGER: Inhibition of human LU-134-A cell growth in a cell viability assay.

MOLT-4 = type: functional, cell-based; conditions: Homo sapiens;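 further: growth inhibition of MOLT-4 cells, determined with a cell viability readout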
Description: SANGER: Inhibition of human MOLT-4 cell growth in a cell viability assay.

MV4-11 = type: functional, cell-based, MV-4-11; conditions: Homo sapiens;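 further: cell viability readout measuring growth inhibition of human MV-4-11 cells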
Description: SANGER: Inhibition of human MV-4-11 cell growth in a cell viability assay.

MZ7-mel = type: functional, cell-based, Homo sapiens; conditions: Homo sapiens, MZ7-mel;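 further: growth inhibition of human MZ7-mel cells, measured by a cell viability assay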
ONS-76 = type: functional, cell-based, Homo sapiens; conditions: Homo sapiens, ONS-76;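 further: growth inhibition of human ONS-76 cells, read out with a cell viability assay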
RCC10RGB = type: functional, cell-based, Homo sapiens; conditions: Homo sapiens, RCC10RGB;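 further: growth inhibition of human RCC10RGB cells, read out by a cell viability assay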
Description: SANGER: Inhibition of human RCC10RGB cell growth in a cell viability assay.

RS4-11 = type: functional, cell-based; conditions: Homo sapiens;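 further: growth inhibition of RS4-11 cells, read out by a cell viability assay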
Description: SANGER: Inhibition of human RS4-11 cell growth in a cell viability assay.

RXF 393 = type: functional, cell-based; conditions: Homo sapiens;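 further: growth inhibition of human RXF 393 cells, read out with a cell viability assay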
ALL-PO = type: functional, cell-based; conditions: Homo sapiens;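 further: growth inhibition of ALL-PO cells, read out by a cell viability assay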
Description: SANGER: Inhibition of human ALL-PO cell growth in a cell viability assay.

BT-474 = type: functional, cell-based, Homo sapiens; conditions: Homo sapiens, BT-474
Description: SANGER: Inhibition of human BT-474 cell growth in a cell viability assay.

BV-173 = type: functional, cell-based; conditions: Homo sapiens
Description: SANGER: Inhibition of human BV-173 cell growth in a cell viability assay.

TGW = type: functional, cell-based; conditions: Homo sapiens;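 further: growth inhibition of human TGW cells, read out with a cell viability assay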
Description: SANGER: Inhibition of human TGW cell growth in a cell viability assay.

CCRF-CEM = type: functional, cell-based; conditions: Homo sapiens;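 further: inhibition of CCRF-CEM cell growth, measured by a cell viability assay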
Description: SANGER: Inhibition of human CCRF-CEM cell growth in a cell viability assay.

| SMILES | IC50 (D-502MG) [nM] | IC50 (EW-24) [nM] | IC50 (GI-ME-N) [nM] | IC50 (GT3TKB) [nM] | IC50 (JVM-3) [nM] | IC50 (L-363) [nM] | IC50 (LAN-6) [nM] | IC50 (LU-134-A) [nM] | IC50 (MOLT-4) [nM] | IC50 (MV4-11) [nM] | IC50 (MZ7-mel) [nM] | IC50 (ONS-76) [nM] | IC50 (RCC10RGB) [nM] | IC50 (RS4-11) [nM] | IC50 (RXF 393) [nM] | IC50 (ALL-PO) [nM] | IC50 (BT-474) [nM] | IC50 (BV-173) [nM] | IC50 (TGW) [nM] | IC50 (CCRF-CEM) [nM] | further results |
| --- | --- | --- | --- | --- | --- | --- | --- | --- | --- | --- | --- | --- | --- | --- | --- | --- | --- | --- | --- | --- | --- |
| C=C1C(=O)O[C@@H]2C3O[C@]3(C)CC/C=C(\C)CC[C@@H]12 (stereo not given in full) | > 5000 | > 5000 | > 5000 | > 5000 | > 5000 | > 5000 | > 5000 | > 5000 | > 5000 | > 5000 | > 5000 | > 5000 | > 5000 | > 5000 | > 5000 | > 5000 | > 5000 | > 5000 | > 5000 | > 5000 | IC50 (D-392MG): > 5000 nM; IC50 (KP-N-YN): > 5000 nM |
| CC1=C2C[C@H]3[C@@H](CC=C4C[C@@H](O)CC[C@@]43C)[C@@H]2CC[C@]12O[C@@H]1C[C@H](C)CN[C@H]1[C@H]2C [CYCLOPAMINE] | > 16000 | > 16000 | > 16000 | > 16000 | > 16000 | > 16000 | > 16000 | > 16000 | > 16000 | > 16000 | > 16000 | > 16000 | > 16000 | > 16000 | > 16000 | 11800 | > 16000 | > 16000 | > 16000 | > 16000 | IC50 (D-392MG): > 16000 nM; IC50 (KP-N-YN): > 16000 nM |
| CS(=O)(=O)CCNCc1ccc(-c2ccc3ncnc(Nc4ccc(OCc5cccc(F)c5)c(Cl)c4)c3c2)o1 [LAPATINIB] | > 2000 | > 2000 | > 2000 | > 2000 | > 2000 | > 2000 | > 2000 | > 2000 | > 2000 | > 2000 | > 2000 | > 2000 | > 2000 | > 2000 | > 2000 | > 2000 | 213 | > 2000 | > 2000 | > 2000 | IC50 (D-392MG): > 2000 nM |
| CCc1nc(N)nc(N)c1-c1ccc(Cl)cc1 [PYRIMETHAMINE] | > 20000 | > 20000 | 1400 | > 20000 | > 20000 | > 20000 | > 20000 | > 20000 | 5430 | 11400 | 7560 | 9860 | > 20000 | > 20000 | > 20000 | 1190 | > 20000 | 12700 | > 20000 | 9390 | IC50 (D-392MG): > 20000 nM; IC50 (KP-N-YN): > 20000 nM |
| O=C(/C=C/c1ccccc1)NC(NC(=S)Nc1cccc2cccnc12)C(Cl)(Cl)Cl (stereo not given) [SALUBRINAL] | > 16000 | > 16000 | > 16000 | > 16000 | > 16000 | 13600 | > 16000 | > 16000 | > 16000 | > 16000 | > 16000 | > 16000 | > 16000 | > 16000 | > 16000 | 4090 | > 16000 | 11500 | > 16000 | > 16000 | IC50 (D-392MG): > 16000 nM; IC50 (KP-N-YN): > 16000 nM |
| CN1CCN(CCOc2cc(OC3CCOCC3)c3c(Nc4c(Cl)ccc5c4OCO5)ncnc3c2)CC1 [SARACATINIB] | > 2000 | 627 | > 2000 | > 2000 | > 2000 | > 2000 | > 2000 | > 2000 | > 2000 | > 2000 | > 2000 | > 2000 | > 2000 | > 2000 | 1240 | > 2000 | > 2000 | 652 | > 2000 | > 2000 | – |
| CO[C@H]1C[C@@H]2CC[C@@H](C)[C@@](O)(O2)C(=O)C(=O)N2CCCC[C@H]2C(=O)O[C@H]([C@H](C)C[C@@H]2CC[C@@H](O)[C@H](OC)C2)CC(=O)[C@H](C)/C=C(\C)[C@@H](O)[C@@H](OC)C(=O)[C@H](C)C[C@H](C)/C=C/C=C/C=C/1C [SIROLIMUS] | > 100 | > 100 | > 100 | > 100 | > 100 | 44.7 | > 100 | > 100 | 96.8 | 83.7 | > 100 | > 100 | > 100 | > 100 | > 100 | > 100 | > 100 | 84 | > 100 | 4.94 | – |
| CNC(=O)c1cc(Oc2ccc(NC(=O)Nc3ccc(Cl)c(C(F)(F)F)c3)cc2)ccn1 [SORAFENIB] | > 4000 | > 4000 | > 4000 | > 4000 | > 4000 | > 4000 | > 4000 | > 4000 | > 4000 | < 15.6 | 3660 | > 4000 | > 4000 | – | > 4000 | 31.8 | > 4000 | > 4000 | > 4000 | > 4000 | IC50 (D-392MG): > 4000 nM; IC50 (KP-N-YN): > 4000 nM |
| CCC(=O)N1CCN(c2ccc(-n3c(=O)ccc4cnc5ccc(-c6cnc7ccccc7c6)cc5c43)cc2C(F)(F)F)CC1 [TORIN1] | > 1200 | > 1200 | 180 | 109 | > 1200 | 2.84 | > 1200 | 553 | 66.1 | 70 | 26.1 | 131 | > 1200 | 59.4 | 94.6 | 49.6 | 293 | 22 | 375 | 33.7 | – |
| Cc1cc(Nc2cc(N3CCN(C)CC3)nc(Sc3ccc(NC(=O)C4CC4)cc3)n2)n[nH]1 [TOZASERTIB] | > 2000 | > 2000 | > 2000 | 1280 | > 2000 | > 2000 | > 2000 | > 2000 | 233 | 77.8 | > 2000 | 665 | > 2000 | 4.04 | > 2000 | 882 | > 2000 | 126 | > 2000 | 653 | – |
